{
  "source": "patent US20190255042A1",
  "about": "“APPLICATION OF HEDGEHOG PATHWAY INHIBITOR IN TREATING FIBROSIS DISEASES” (IMPACT THERAPEUTICS, INC, priority 2016, published 2019)",
  "test_system": "unilateral pulmonary fibrosis model in SD rats",
  "assay": "Therapeutic efficacy in unilateral pulmonary fibrosis model in SD rats (bleomycin, dosing from D8)",
  "assay_type": "in vivo",
  "parameters": "Evaluation of injury and inflammatory lesions of left lung: Fibrotic lesion edge / Evaluation of injury and inflammatory lesions of left lung: Fibrosis lesion: scale not given here",
  "conditions": "for Expression of Type I collagen (%) / Expression of α-SMA protein (%): left lung immunohistochemistry; for Expression of Type I collagen (%) / Expression of α-SMA protein (%) / Evaluation of injury and inflammatory lesions of left lung: Fibrosis lesion / Evaluation of injury and inflammatory lesions of left lung: Fibrotic lesion edge / Fibrosis area (left pulmonary) / Fibrosis Score 1-3 (%) / Fibrosis Score 4-8 (%) / Fibrosis score (Ashcraft) / Volume of left lung / Weight of left lung: mean ± sem; for Evaluation of injury and inflammatory lesions of left lung: Fibrosis lesion / Evaluation of injury and inflammatory lesions of left lung: Fibrotic lesion edge: HE score; for Fibrosis area (left pulmonary): Masson trichrome",
  "method": "On the modeling day, rats were anesthetized and exposed to trachea. Bleomycin was injected into left trachea of each group (dosage: 3 mg/kg, volume: 1.0 ml/kg). Oral administration was performed on Day 8 after modeling, once a day. On Day 22, according to the KCI animal euthanasia SOP, animals in each group were given an overdose of sodium barbiturate and sacrificed under intraperitoneal anesthesia, the left lung was taken, the weight and volume of the left lung were measured, then fixed by formalin, the bronchioles were stained with HE, Masson trichrome. The bronchioles, final bronchiole and small pulmonary artery injury and inflammation invasion were evaluated by semi-quantitative score, and pulmonary fibrosis was evaluated by Ashcraft semi-quantitative score. Immunohistochemical staining of α-SMA, Type I collagen (Collagen-I) were performed at the same time, a full scan was performed by Hamamatsu NanoZoomer Digital Pathology (S210), the α-SMA positive area was semiquantitatively calculated from the unit area of the whole sheelt in pulmonary fibrosis foci, and the positive staining area of type-I collagent per unit of area was calculated.",
  "key": {"[1]": {"conditions": "5 mpk oral D8 to D22 after modeling"}, "[2]": {"conditions": "15 mpk oral D8 to D22 after modeling"}, "[3]": {"conditions": "30 mpk oral D8 to D22 after modeling"}},
  "data": [
    {"compound": "CC(C)c1cnc(-c2cc(NC(=O)c3ccc(N4C[C@@H](C)N(C)[C@@H](C)C4)cc3C(F)(F)F)ccc2Cl)[nH]1", "note": "[Comp A, N-(3-(5-isopropyl-1H-imidazol-2-yl)-4-chlorophenyl)-2-trifluoromethyl-4-((3S,5R)-3,4,5-trimethylpiperazin-1-yl)benzamide]", "values": [
      {"measurement": "percentage of α-SMA protein compared with model group", "setting": "30 mg/kg/d", "value": "significantly decreased"},
      {"measurement": "percentage of Type-I collagen protein", "setting": "30 mg/kg/d and 15 mg/kg/d, no statistical significance", "value": "decreased"},
      {"measurement": "dose dependence of α-SMA protein expression", "setting": "5, 15, 30 mg/kg/d", "value": "significant dose dependence"},
      {"measurement": "Expression of Type I collagen (%)", "setting": "5 mpk oral D8 to D22, n = 5", "value": "18.76 ± 2.54", "unit": "%"},
      {"measurement": "Expression of α-SMA protein (%)", "setting": "5 mpk oral D8 to D22, n = 5", "value": "8.06 ± 0.59", "unit": "%"},
      {"measurement": "Evaluation of injury and inflammatory lesions of left lung: Fibrosis lesion", "setting": "[1]", "value": "6.75 ± 0.40"},
      {"measurement": "Evaluation of injury and inflammatory lesions of left lung: Fibrotic lesion edge", "setting": "[1]", "value": "4.90 ± 0.15"},
      {"measurement": "Fibrosis area (left pulmonary)", "setting": "[1]", "value": "70.61 ± 5.23"},
      {"measurement": "Fibrosis Score 1-3 (%)", "setting": "[1]", "value": "88.00 ± 5.83", "unit": "%"},
      {"measurement": "Fibrosis Score 4-8 (%)", "setting": "[1]", "value": "12.00 ± 5.83", "unit": "%"},
      {"measurement": "Fibrosis score (Ashcraft)", "setting": "[1]", "value": "2.44 ± 0.11"},
      {"measurement": "Volume of left lung", "setting": "[1]", "value": "1.34 ± 0.14", "unit": "cm^3"},
      {"measurement": "Weight of left lung", "setting": "[1]", "value": "1.60 ± 0.33", "unit": "g"},
      {"measurement": "damage and inflammatory response of terminal bronchioles within fibrosis lesions and pulmonary small artery compared with model group", "setting": "14 consecutive days, BIBF1120 100, Compound A 5, 15, 30, GDC0449 50 mg/kg/d, p<0.001", "value": "significantly reduced"},
      {"measurement": "Expression of Type I collagen (%)", "setting": "15 mpk oral D8 to D22, n = 7", "value": "16.48 ± 0.93", "unit": "%"},
      {"measurement": "Expression of α-SMA protein (%)", "setting": "15 mpk oral D8 to D22, n = 7", "value": "7.30 ± 0.84", "unit": "%"},
      {"measurement": "Evaluation of injury and inflammatory lesions of left lung: Fibrosis lesion", "setting": "[2]", "value": "6.89 ± 0.34"},
      {"measurement": "Evaluation of injury and inflammatory lesions of left lung: Fibrotic lesion edge", "setting": "[2]", "value": "4.82 ± 0.24"},
      {"measurement": "Fibrosis area (left pulmonary)", "setting": "[2]", "value": "71.16 ± 2.81"},
      {"measurement": "Fibrosis Score 1-3 (%)", "setting": "[2]", "value": "91.43 ± 1.43", "unit": "%"},
      {"measurement": "Fibrosis Score 4-8 (%)", "setting": "[2]", "value": "8.57± 1.43", "unit": "%"},
      {"measurement": "Fibrosis score (Ashcraft)", "setting": "[2]", "value": "2.44 ± 0.07"},
      {"measurement": "Volume of left lung", "setting": "[2]", "value": "1.41 ± 0.21", "unit": "cm^3"},
      {"measurement": "Weight of left lung", "setting": "[2]", "value": "1.40 ± 0.21", "unit": "g"},
      {"measurement": "Expression of Type I collagen (%)", "setting": "30 mpk oral D8 to D22, n = 7", "value": "16.77 ± 2.03", "unit": "%"},
      {"measurement": "Expression of α-SMA protein (%)", "setting": "30 mpk oral D8 to D22, n = 7, **p<0.01 vs. Model group", "value": "4.96 ± 0.26** %"},
      {"measurement": "Evaluation of injury and inflammatory lesions of left lung: Fibrosis lesion", "setting": "[3]", "value": "7.03 ± 0.18"},
      {"measurement": "Evaluation of injury and inflammatory lesions of left lung: Fibrotic lesion edge", "setting": "[3]", "value": "4.95 ± 0.20"},
      {"measurement": "Fibrosis area (left pulmonary)", "setting": "[3]", "value": "71.27 ± 3.21"},
      {"measurement": "Fibrosis Score 1-3 (%)", "setting": "[3]", "value": "84.29 ± 4.81", "unit": "%"},
      {"measurement": "Fibrosis Score 4-8 (%)", "setting": "[3]", "value": "15.71 ± 4.81", "unit": "%"},
      {"measurement": "Fibrosis score (Ashcraft)", "setting": "[3]", "value": "2.47 ± 0.16"},
      {"measurement": "Volume of left lung", "setting": "[3]", "value": "1.40 ± 0.09", "unit": "cm^3"},
      {"measurement": "Weight of left lung", "setting": "[3]", "value": "1.44 ± 0.14", "unit": "g"},
      {"measurement": "degree of pulmonary fibrosis (Ashcraft score) compared with model group", "setting": "BIBF1120 100, Compound A 5, 15, 30, GDC0449 50 mg/kg/d, p<0.01", "value": "significantly better"},
      {"measurement": "amount of Type I collagen deposition in the fibrotic lesions compared with model group", "setting": "BIBF1120 100 mpk, Compound A 5 mpk, GDC0449 50 mpk", "value": "no significant difference"}
    ]}
  ]
}
